Patent US8536157B2, “Non-steroidal compounds” (The University of Melbourne, priority 2007, dated 2013)

How the values were obtained:
[1] = biological target: proteins in rat lung membranes; test: Competitive binding assay with [3H]-CP2117 on rat lung membranes (RLM); details: given as Log IC50 (negative values); displacement of 10 nM [3H]-CP2117, overnight at 4° C.; ND- not detected
[2] = test system: PGE2 release in U937 cells; test: PGE2 release from PMA-treated U937 cells (radioimmunoassay); type: cell-based, human; details: 24 hour incubation; for activity at 1 µM: Homo sapiens, U-937, 24 h, read-out: Effects on PGE2 release in U937 cells at 1 μM as a % of PMA control, mean
Method: The U937 monocytic cell line (available from the ATCC, USA) is commonly used to evaluate anti-inflammatory agents. In the present experiment, U937 cells maintained in culture in a medium comprising RPMI containing (5% FCS v/v; supplemented with 100 U/ml penicillin, and […] streptomycin) were treated with phorbol myristate acetate (10 nM) then immediately dispersed into a 24 well cell culture plate at a concentration of 2×10^5 cells per ml in a volume of 1 ml per well. After 24 hours by which time the cells had adhered to the plastic substrate, they were treated with one of several analogues or with the vehicle of 0.1% DMSO. After a further 24 hour incubation period the supernatant was harvested and the content of prostaglandin E2 was measured by a radioimmunoassay, as described by Vlahos, R., & Stewart, A. G. (1999). (“Interleukin-1α and Tumour necrosis factor-α inhibit airway smooth muscle DNA synthesis by a glucocorticoid-sensitive induction of cyclo-oxygenase-2. British Journal of Pharmacology, 126, 1315-1324). […] The data in the table are presented as percentage of the control level of Prostaglandin E2.
Several analogues were evaluated for their actions on the release of PGE2 from the human U937macrophage cell line. Cells were stimulated by exposure to PMA 1 nM and after a period allowed for adherence of cells to the plastic culture dish, the cell were treated with one of several CP analogues. […] The chemical structures of CP1-56 and CP1-58 are as follows: […]

[3] = test system: PGE2 release in J774 macrophages; test: PGE2 release from LPS/IFNγ-stimulated J774 macrophages (radioimmunoassay); type: cell-based, murine; details: Mus musculus, J774, 24 h, 30 min pre-treatment, 24 hour incubation; for activity at 1 µM: read-out: Effects on PGE2 release in J774 macrophages at 1 μM as a % of LPS/IFNγ control, mean; for activity at 10 µM: l0 μM, read-out: Effects on PGE2 release in J774 macrophages at l0 μM as a % of LPS/IFNγ control, mean

| SMILES | Log IC50 RLM binding [1] | melting point | activity at 1 µM [2] | also measured |
| --- | --- | --- | --- | --- |
| COc1ccc(/C(C)=N/OCc2cc(F)cc(F)c2)cc1O [CP30274, (E)-3′-Hydroxy-4′-methoxyacetophenone O-3,5-Difluorobenzyl Oxime] | −6.86 | 47.7 to 50.2 °C | – | – |
| COc1cc(/C(C)=N/OCc2ccc3nonc3c2)ccc1OS(N)(=O)=O [AA-1-78] | −4.87 | – | 19% | – |
| C/C(=N\OCc1ccc([N+](=O)[O-])cc1)c1ccc(O)c(F)c1 [CP9132, 3′-Fluoro-4′-hydroxyacetophenone-O-4-nitrobenzyloxime] | – | 93 to 94 °C | – | – |
| COc1ccc(/C(C)=N/OCc2cccc(F)c2)cc1F [CP9125, 3′-Fluoro-4′-methoxyacetophenone-O-3-fluorobenzyloxime] | −5.5 | 67 °C | – | – |
| C/C(=N\OCc1ccc([N+](=O)[O-])cc1)c1cccc(O)c1 [CP30260, (E)-3′-Hydroxyacetophenone O-4-Nitrobenzyl Oxime] | – | 123.6 to 125.3 °C | – | – |
| COc1ccc(/C(C)=N/OCc2ccc([N+](=O)[O-])cc2)cc1OC [CP30257, (E)-3′,4′-Dimethoxyacetophenone O-4-Nitrobenzyl Oxime] | – | 118.4 to 121 °C | – | – |
| C/C(=N\OCc1ccc([N+](=O)[O-])cc1)c1ccccc1 [CP30252, (E)-Acetophenone O-4-Nitrobenzyl Oxime] | – | 91.3 to 92.3 °C | – | – |
| COc1ccc(/C(C)=N/OCc2ccc([N+](=O)[O-])cc2)cc1 [CP30253, (E)-4′-Methoxyacetophenone O-4-Nitrobenzyl Oxime] | – | 88.2 to 89.5 °C | – | activity at 1 µM [3]: 47%; activity at 10 µM [3]: 4% |
| COc1ccc(/C(C)=N/OCc2ccc3nonc3c2)cc1 [AA-1-54] | – | – | 76% | – |
| COc1cc(/C(C)=N/OCc2ccc3nonc3c2)ccc1F [CP9129, 4′-Fluoro-3′-methoxyacetophenone-O-[(benzo[c][1,2,5]oxadiazol-5-yl)methyl]oxime] | – | 65 °C | – | – |
| COc1cc(/C(C)=N/OCc2ccc3nonc3c2)ccc1O [AA-1-56] | −6.21 | – | 16% | – |
| COC(=O)c1ccc(CO/N=C(\C)c2ccc(OC)c(O)c2)cc1 [CP30263, (E)-3′-Hydroxy-4′-methoxyacetophenone O-4-Carbomethoxybenzyl Oxime] | −6.46 | 97.7 to 98.7 °C | – | – |
| COc1cc(-c2ccc(C)cc2)c(/C(C)=N/OCc2ccc([N+](=O)[O-])cc2)cc1O [CP30345, (E)-5′-Hydroxy-4′-methoxy-2′-(4-methylphenyl)acetophenone O-4-Nitrobenzyl Oxime] | −6.33 | 105.9 to 108.7 °C | – | activity at 1 µM [3]: 76%; activity at 10 µM [3]: 1% |
| COc1ccc(C(C)=NOCc2ccc3nonc3c2)cc1OS(N)(=O)=O [AA-1-81] | −5.25 | – | 43% | – |
| COc1ccc(/C(C)=N/OCc2ccc(C#N)cc2)cc1O [CP30283, (E)-3′-Hydroxy-4′-methoxyacetophenone O-4-Cyanobenzyl Oxime] | −6.05 | 125.9 to 129.7 °C | – | – |
| COc1ccc(/C(C)=N/OCc2ccc3nonc3c2)cc1OC [AA-1-58] | −4.74 | – | 111% | – |
| COc1cc([C@H]2CC[C@](C)(CO)CC2)c(C(C)=NOCc2ccc3nonc3c2)cc1O [CP30452, 2′-(4-Hydroxymethyl-4-methyl)cyclohexyl-5′-hydroxy-4′-methoxyacetophenone O-(benzofurazan-5-yl)methyl Oxime] | −5.54 | – | 89% | – |

| SMILES | Log IC50 RLM binding [1] | melting point | activity at 1 µM [2] | also measured |
| --- | --- | --- | --- | --- |
| COc1cc(-c2ccc(NC(=O)OC(C)(C)C)cc2)c(/C(C)=N/OCc2ccc([N+](=O)[O-])cc2)cc1O [CP30342, (E)-2′-(4-tert-Butoxycarbonylaminophenyl)-5′-hydroxy-4′-methoxyacetophenone O-4-Nitrobenzyl Oxime] | −6.79 | 91 to 96.8 °C | – | activity at 1 µM [3]: 19%; activity at 10 µM [3]: 0% |
| COc1ccc(/C(C)=N/OCc2ccc([N+](=O)[O-])cc2)cc1OC(C)C [CP30254, (E)-3′-Isopropoxy-4′-methoxyacetophenone O-4-Nitrobenzyl Oxime] | – | 44.5 to 46.1 °C | – | – |
| COc1cc(/C(C)=N/OCc2ccc([N+](=O)[O-])cc2)ccc1O [CP30261, (E)-4′-Hydroxy-3′-methoxyacetophenone O-4-Nitrobenzyl Oxime] | −6.65 | 118.4 to 121.1 °C | – | – |
| COc1cc(-c2ccc(C(F)(F)F)cc2)c(/C(C)=N/OCc2ccc([N+](=O)[O-])cc2)cc1O [CP30346, (E)-2′-(4-Trifluoromethylphenyl)-5′-hydroxy-4′-methoxyacetophenone O-4-Nitrobenzyl Oxime] | −5.99 | 111.5 to 114.1 °C | – | activity at 1 µM [3]: 78%; activity at 10 µM [3]: 34% |
| COc1cc([C@H]2CC[C@](C)(CO)CC2)c(C(C)=NOCc2ccc([N+](=O)[O-])cc2)cc1O [CP30450B, 2′-(4-hydroxymethyl-4-methyl)cyclohexyl-5′-hydroxy-4′-methoxyacetophenone O-4-Nitrobenzyl Oxime] | −5.85 | – | – | Effects on PGE2 release in U937 cells at 1 μM as a % of PMA control, mean [2]: 77 % of PMA control |
| COc1cc(Br)c(/C(C)=N/OCc2ccc([N+](=O)[O-])cc2)cc1O [CP302108-Major, (E)-2′-Bromo-5′-hydroxy-4′-methoxyacetophenone O-4-Nitrobenzyl Oxime] | – | 136.8 to 138.4 °C | – | – |
| COc1ccc(/C(C)=N/OCc2ccc([N+](=O)[O-])cc2)cc1F [CP9123, 3′-Fluoro-4′-methoxyacetophenone-O-4-nitrobenzyloxime] | – | 67 to 68 °C | – | – |
| Brc1cc2c(cc1/C=N/OCc1ccccc1)OCO2 [Compound 10-OK-07a] | −4.76 | – | 114% | – |
| COc1cc2c(cc1O)/C(=N/OCc1ccc([N+](=O)[O-])cc1)C(C)(C)CC2 [AA-1-39-2] | −6.19 | – | 100% | – |
| C/C(=N\OCc1ccc2nonc2c1)c1ccccc1 [AA-1-53] | – | – | 91% | – |
| C/C(=N\OCc1ccc2nonc2c1)c1ccc2c(c1)OCO2 [AA-1-55] | – | – | 90% | – |
| C/C(=N\OCc1ccc([N+](=O)[O-])cc1)c1ccc2c(c1)OCO2 [CP30255, (E)-3′,4′-Methylenedioxyacetophenone O-4-Nitrobenzyl Oxime] | – | 158.7 to 160.5 °C | – | – |
| COc1ccc(/C(C)=N/OCc2ccc(F)c(F)c2)cc1F [CP9126, 3′-Fluoro-4′-methoxyacetophenone-O-3,4-difluorobenzyloxime] | – | 62 to 63 °C | – | – |
| COc1cc([C@H]2CC[C@](C)(CO)CC2)c(C(C)=NOCc2ccc([N+](=O)[O-])cc2)cc1O [CP30450A, 2′-(4-hydroxymethyl-4-methyl)cyclohexyl-5′-hydroxy-4′-methoxyacetophenone O-4-Nitrobenzyl Oxime] | −5.81 | – | 80% | – |
| COc1cc2c(cc1OS(N)(=O)=O)C(=NOCc1ccc([N+](=O)[O-])cc1)C(C)(C)CC2 [AA-1-79] | −4.58 | – | 113% | – |
| COc1cc([C@H]2CC[C@@](C)(CO)CC2)c(C(C)=NOCc2ccc([N+](=O)[O-])cc2)cc1O [CP30451, 2′-(4-hydroxymethyl-4-methyl)cyclohexyl-5′-hydroxy-4′-methoxyacetophenone O-4-Nitrobenzyl Oxime] | −5.73 | – | 67% | – |
